From ChEMBL document CHEMBL5030564, “Multifunctional Antibiotic-Host Defense Peptide Conjugate Kills Bacteria, Eradicates Biofilms, and Modulates the Innate Immune Response” (J Med Chem, 2021)
≈ marks a conversion by molar mass, not a printed value. Calls of active or inactive are those of the source. The rule behind the calls is not given here. Residues, ends and D or L forms follow the SMILES beside them.

What was measured:
[1] = (§1) Immunomodulatory activity in PBMC (unknown origin) assessed as reduction in LPS-induced IL-1beta level by ELISA; format: functional; parameters: scale not given: the % may be the effect or the level left
Staphylococcus aureus [2] = assay: Antimicrobial activity against methicillin resistant Staphylococcus aureus in N/TERT-based epidermal model assessed as reduction in bacterial count in epidermis; format: functional, organism-based
[3] = test system: Staphylococcus epidermidis; assay: Antibiofilm activity against Staphylococcus epidermidis ATCC14990 assessed as disruption of mature biofilms by TCC bacterial metabolic assay; format: functional
Staphylococcus aureus [4] = assay: Antibiofilm activity against methicillin-resistant Staphylococcus aureus SAP 0017 assessed as biofilm eradication concentration by Calgary biofilm device assay; format: functional
[5] = Toxicity in Staphylococcus epidermidis infected CD-1 mouse assessed as reduction in bacterial load at 2.5 mg/kg, ILES after 3 days; format: organism-based; settings: in vivo, other, 72 h, time 3 day
Staphylococcus aureus [6] = assay: Antibacterial activity against methicillin resistant Staphylococcus aureus USA300 LAC assessed as change in susceptibility at sub-MIC treated over 14 serial passages by resistance development assay; format: functional, organism-based; settings: MRSA USA300 LAC
[7] = test system: Staphylococcus epidermidis; assay: Antibiofilm activity against Staphylococcus epidermidis ATCC14990 assessed as inhibition of CV-staining/biomass formation measured after overnight incubation by biofilm inhibition assay; format: functional
Staphylococcus aureus [8] = assay: Antibiofilm activity against methicillin-resistant Staphylococcus aureus SAP 0017 assessed as disruption of mature biofilms by TCC bacterial metabolic assay; format: functional
Enterococcus faecium [9] = assay: Antimicrobial activity against Enterococcus faecium assessed as inhibition of bacterial growth incubated for 18 to 20 hrs by broth microdilution assay; format: functional; settings: time 18-20 hrs
Staphylococcus aureus [10] = assay: Antibiofilm activity against methicillin-resistant Staphylococcus aureus USA300 LAC assessed as inhibition of CV-staining/biomass formation measured after overnight incubation by biofilm inhibition assay; format: functional, MRSA USA300 LAC
Staphylococcus aureus [11] = assay: Antibiofilm activity against methicillin resistant Staphylococcus aureus in N/TERT-based epidermal model assessed as reduction in bacterial clusters by H&E staining based histological analysis; format: functional, organism-based
Enterococcus faecium [12] = assay: Antibiofilm activity against Enterococcus faecium assessed as inhibition of CV-staining/biomass formation measured after overnight incubation by biofilm inhibition assay; format: functional
Staphylococcus aureus [13] = assay: Antibacterial activity against methicillin-resistant Staphylococcus aureus USA300 LAC assessed as measuring killing rate at 16 ug/ml measured with in 30 mins by time kill assay; format: functional, organism-based; settings: MRSA USA300 LAC, dose 16.0 µg/ml
Staphylococcus aureus [14] = assay: Antibiofilm activity against methicillin-resistant Staphylococcus aureus SAP 0017 assessed as inhibition of CV-staining/biomass formation measured after overnight incubation by biofilm inhibition assay; format: functional
[15] = Immunomodulatory activity in PBMC (unknown origin) assessed as reduction in LPS-induced IL-10 level by ELISA; format: functional; parameters: scale not given: the % may be the effect or the level left
Enterococcus faecium [16] = assay: Antibiofilm activity against Enterococcus faecium assessed as biofilm eradication concentration by Calgary biofilm device assay; format: functional
Staphylococcus aureus [17] = assay: Antibiofilm activity against methicillin-resistant Staphylococcus aureus USA300 LAC assessed as rough surfaces sprinkled with debris at 16 ug/ml by scanning electron microscopy based assay; format: functional, organism-based; settings: MRSA USA300 LAC, dose 16.0 µg/ml
Enterococcus faecium [18] = assay: Antibiofilm activity against Enterococcus faecium assessed as reduction in viable biofilm cell counts by TCC bacterial metabolic assay; format: functional, organism-based
PBMC [19] = assay: Immunomodulatory activity in PBMC (unknown origin) assessed as increase in MCP-1 production level at 12.5 ug/ml incubated for 24 hrs by ELISA; format: functional, tissue-based; settings: dose 12.5 µg/ml
Staphylococcus aureus [20] = assay: Antimicrobial activity against methicillin-resistant Staphylococcus aureus SAP 0017 assessed as inhibition of bacterial growth incubated for 18 to 20 hrs by broth microdilution assay; format: functional; settings: time 18-20 hrs
Staphylococcus aureus [21] = assay: Antibiofilm activity against methicillin resistant Staphylococcus aureus-lux biofilm in N/TERT-based epidermal model assessed as reduction in luminescence treated at 300 ug/ml topically incubated for 4 hrs by ChemiDoc imaging system; format: functional, organism-based; settings: dose 300.0 µg/ml
[22] = Cytotoxicity against PBMC (unknown origin) at 100 ug incubated for 24 hrs by lactate dehydrogenase assay; format: tissue-based; settings: dose 100 µg
Staphylococcus aureus [23] = assay: Antibiofilm activity against methicillin-resistant Staphylococcus aureus USA300 LAC assessed as killing biofilm cells at 16 ug/ml incubated for 4 hrs after SYTO9/PI staining by confocal microscopy; format: functional, MRSA USA300 LAC; settings: dose 16 µg/ml
Staphylococcus aureus [24] = assay: Antibiofilm activity against methicillin-resistant Staphylococcus aureus USA300 LAC assessed as minimal biofilm eradication concentration required for complete inhibition of bacterial growth by Calgary biofilm device assay; format: functional, MRSA USA300 LAC
[25] = test system: Staphylococcus epidermidis; assay: Antibiofilm activity against Staphylococcus epidermidis ATCC14990 assessed as biofilm eradication concentration by Calgary biofilm device assay; format: functional
Staphylococcus aureus [26] = assay: Antibiofilm activity against methicillin-resistant Staphylococcus aureus USA300 LAC assessed as disruption of mature biofilms by TCC bacterial metabolic assay; format: functional, MRSA USA300 LAC
Staphylococcus aureus [27] = assay: Antimicrobial activity against methicillin-resistant Staphylococcus aureus USA300 LAC assessed as inhibition of bacterial growth incubated for 18 to 20 hrs by broth microdilution assay; format: functional; settings: MRSA USA300 LAC, time 18-20 hrs
[28] = Toxicity in methicillin resistant Staphylococcus aureus USA300 infected CD-1 mouse assessed as reduction in bacterial load at 2.5 mg/kg, ILES after 3 days; format: organism-based; settings: in vivo, other, 72 h, time 3 day
[29] = Toxicity in Staphylococcus epidermidis infected CD-1 mouse assessed as reduction in abscess size at 2.5 mg/kg, ILES after 3 days; format: organism-based; parameters: scale not given: the % may be the effect or the level left; settings: in vivo, other, 72 h, time 3 day
[30] = test system: Staphylococcus epidermidis; assay: Antimicrobial activity against Staphylococcus epidermidis ATCC14990 assessed as inhibition of bacterial growth incubated for 18 to 20 hrs by broth microdilution assay; format: functional; settings: time 18-20 hrs
[31] = Toxicity in Staphylococcus epidermidis infected CD-1 mouse assessed as reduction in bacterial load at 0.25 mg/kg, ILES after 3 days; format: organism-based; settings: in vivo, other, 72 h, time 3 day
[32] = Toxicity in methicillin resistant Staphylococcus aureus USA300 infected CD-1 mouse assessed as reduction in bacterial load at 0.25 mg/kg, ILES after 3 days; format: organism-based; settings: in vivo, other, 72 h, time 3 day
PBMC [33] = assay: as §1; format: functional

SMILES	Activity [1] [%]	MBEC (Staphylococcus aureus [4]) [µg/mL]	MBIC [7] [µg/mL]	MIC (Enterococcus faecium [9]) [µg/mL]	MBIC (Staphylococcus aureus [10]) [µg/mL]	Activity (Staphylococcus aureus [11])	MBIC (Enterococcus faecium [12]) [µg/mL]	MBIC (Staphylococcus aureus [14]) [µg/mL]	Activity [15] [%]	MBEC (Enterococcus faecium [16]) [µg/mL]	MIC (Staphylococcus aureus [20]) [µg/mL]	Activity (Staphylococcus aureus [21])	Activity (Staphylococcus aureus [23]) [%]	MBEC (Staphylococcus aureus [24]) [µg/mL]	MBEC [25] [µg/mL]	MIC (Staphylococcus aureus [27]) [µg/mL]	MIC [30] [µg/mL]	further results
CC[C@H](C)[C@H](NC(=O)[C@H](CCCNC(=N)N)NC(=O)[C@@H](NC(=O)[C@H](C)NC(=O)[C@@H](NC(=O)[C@@H](NC(=O)[C@H](CC(C)C)NC(=O)[C@H](CCCNC(=N)N)NC(=O)[C@@H](NC(=O)[C@H]1NC(=O)[C@H]2NC(=O)[C@H](NC(=O)[C@@H]3NC(=O)[C@H](CC(N)=O)NC(=O)[C@H](NC(=O)[C@@H](CC(C)C)NC)[C@H](O)c4ccc(c(Cl)c4)Oc4cc3cc(c4O[C@@H]3O[C@H](CO)[C@@H](O)[C@H](O)[C@H]3O[C@H]3C[C@](C)(N)[C@H](O)[C@H](C)O3)Oc3ccc(cc3Cl)[C@H]2O)c2ccc(O)c(c2)-c2c(O)cc(O)cc21)C(C)C)[C@@H](C)CC)C(C)C)C(C)C)C(=O)N[C@@H](Cc1c[nH]c2ccccc12)C(=O)N[C@@H](CCCNC(=N)N)C(=O)N[C@@H](CCCNC(=N)N)C(N)=O	40	8	8	32 (≈ 10.8 µM)	4	Active	32	4	40	64	4 (≈ 1.35 µM)	Active	>90	8	8	4 (≈ 1.35 µM)	4 (≈ 1.35 µM)	Activity (Staphylococcus aureus [2]): Active; Activity [3]: 80%; Activity [5]: Non-Toxic; Activity (Staphylococcus aureus [6]): inactive; Activity (Staphylococcus aureus [8]): 80%; Activity (Staphylococcus aureus [13]): Active; Activity (Staphylococcus aureus [17]): Active; Activity (Enterococcus faecium [18]): inactive; Activity (PBMC [19]): Active; Activity [22]: Non-Toxic; Activity (Staphylococcus aureus [26]): 80%; Activity [28]: Non-Toxic; Activity [29]: 90%
CC[C@H](C)[C@H](NC(=O)[C@H](CCCNC(=N)N)NC(=O)[C@@H](NC(=O)[C@H](C)NC(=O)[C@@H](NC(=O)[C@@H](NC(=O)[C@H](CC(C)C)NC(=O)[C@H](CCCNC(=N)N)NC(=O)[C@@H](N)C(C)C)[C@@H](C)CC)C(C)C)C(C)C)C(=O)N[C@@H](Cc1c[nH]c2ccccc12)C(=O)N[C@@H](CCCNC(=N)N)C(=O)N[C@@H](CCCNC(=N)N)C(N)=O (H-VRLIVAVRIWRR-NH2)	40		16	> 64		inactive	>64			>128	16 (≈ 10.4 µM)	Active	>75		16	16 (≈ 10.4 µM)	16 (≈ 10.4 µM)	fold change (FC) [5]: > 1000
CCCCCCCCCCCCCCCC[N+](C)(C)Cc1ccccc1.[Cl-] [CETALKONIUM CHLORIDE]			4	> 64	4		>64	4		>128	2			8	16	2	4	
CN[C@H](CC(C)C)C(=O)N[C@H]1C(=O)N[C@@H](CC(N)=O)C(=O)N[C@H]2C(=O)N[C@H]3C(=O)N[C@H](C(=O)N[C@H](C(=O)O)c4cc(O)cc(O)c4-c4cc3ccc4O)[C@H](O)c3ccc(c(Cl)c3)Oc3cc2cc(c3O[C@@H]2O[C@H](CO)[C@@H](O)[C@H](O)[C@H]2O[C@H]2C[C@](C)(N)[C@H](O)[C@H](C)O2)Oc2ccc(cc2Cl)[C@H]1O [VANCOMYCIN]		>128	2	> 128	2	inactive	>128	2	5	>128		Active	<25	>128	>128			Activity [31]: Non-Toxic; Activity [32]: Non-Toxic; Activity (PBMC [33]): inactive
